Laboratory results published in ChEMBL document CHEMBL2073973, “Mitotracker green is a P-glycoprotein substrate” (Biosci Rep, 2003).

Target: ATP-dependent translocase ABCB1 (Homo sapiens, UniProt P08183)
Assay: TP_TRANSPORTER: cell accumulation in Lucena-1 cells
Type: functional, cell-based

ATP-dependent translocase ABCB1, sequence (P08183 whole entry): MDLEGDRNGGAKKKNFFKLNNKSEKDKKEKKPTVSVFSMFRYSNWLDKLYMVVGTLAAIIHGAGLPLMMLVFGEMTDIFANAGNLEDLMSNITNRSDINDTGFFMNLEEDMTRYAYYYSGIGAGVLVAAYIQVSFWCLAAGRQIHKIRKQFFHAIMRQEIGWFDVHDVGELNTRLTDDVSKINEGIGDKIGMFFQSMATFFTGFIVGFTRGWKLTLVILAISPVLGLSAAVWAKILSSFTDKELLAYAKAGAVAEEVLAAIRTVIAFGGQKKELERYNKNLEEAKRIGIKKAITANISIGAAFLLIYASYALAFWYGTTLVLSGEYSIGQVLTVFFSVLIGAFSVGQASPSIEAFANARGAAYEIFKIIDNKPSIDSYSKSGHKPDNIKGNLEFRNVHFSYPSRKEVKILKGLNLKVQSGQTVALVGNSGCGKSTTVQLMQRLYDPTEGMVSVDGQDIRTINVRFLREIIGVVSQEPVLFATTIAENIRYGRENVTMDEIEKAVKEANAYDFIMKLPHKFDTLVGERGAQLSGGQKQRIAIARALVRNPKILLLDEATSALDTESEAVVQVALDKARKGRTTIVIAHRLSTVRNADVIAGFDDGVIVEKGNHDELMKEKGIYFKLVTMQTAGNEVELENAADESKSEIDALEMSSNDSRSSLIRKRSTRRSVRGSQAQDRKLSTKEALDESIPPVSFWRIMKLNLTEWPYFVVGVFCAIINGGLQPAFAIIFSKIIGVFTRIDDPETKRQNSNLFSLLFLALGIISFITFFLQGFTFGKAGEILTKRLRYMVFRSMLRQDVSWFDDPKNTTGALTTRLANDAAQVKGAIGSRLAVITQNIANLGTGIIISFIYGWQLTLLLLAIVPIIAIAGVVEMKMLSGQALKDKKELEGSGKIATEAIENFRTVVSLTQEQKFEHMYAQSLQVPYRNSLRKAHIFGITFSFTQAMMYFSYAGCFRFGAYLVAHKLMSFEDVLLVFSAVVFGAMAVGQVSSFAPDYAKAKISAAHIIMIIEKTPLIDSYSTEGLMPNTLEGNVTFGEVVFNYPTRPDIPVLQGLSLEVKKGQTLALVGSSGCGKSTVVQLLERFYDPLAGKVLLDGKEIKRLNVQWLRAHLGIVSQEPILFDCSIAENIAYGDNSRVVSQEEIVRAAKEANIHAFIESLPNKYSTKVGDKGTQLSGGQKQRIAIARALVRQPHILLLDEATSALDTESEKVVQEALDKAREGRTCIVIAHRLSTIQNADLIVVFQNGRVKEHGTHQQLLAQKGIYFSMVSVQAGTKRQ

CN1C(=CC=Cc2n(Cc3ccc(CCl)cc3)c3cc(Cl)c(Cl)cc3[n+]2Cc2ccc(CCl)cc2)Oc2ccccc21.[Cl-] [MITOTRACKER GREEN]
Activity: substrate [+]
